“Also recorded” adds a separate entry of the source.
Experiments:
SH-SY5Y cells = experiment: Aβ-induced toxicity in SH-SY5Y cells, lactate dehydrogenase (LDH) release assay; assay type: cell-based, human; settings: 1 μM, pretreated 24 hrs, then 25 μM Aβ 48 hrs
Method: Cell Culture. The cell line SH-SY5Y was cultured in DMEM/F12 media supplemented with 10% fetal bovine serum, 1% penicillin-streptomycin and maintained as monolayer cultures in a humidified atmosphere containing 5% CO2 at 37° C.^42 All cell lines were authenticated via short tandem repeat analysis and tested for mycoplasma using the a commercial mycoplasma detection kit as per the manufacturer's instructions, showing no contamination. Where indicated, cells were also cultured in DMEM/low glucose media. All compounds were diluted to 20 mM solution in DMSO and were serially diluted in cell culture media for cell treatments to a final concentration range of 0.01 to 100 μM, maintaining the final DMSO concentration at less than 1%. Positive control compound HupA was serially diluted in a similar fashion as the synthesized compounds.
Amyloid Preparation. The peptide Aβ1-42, referred to as “Aβ”, was obtained from a commercial source. The oligomers of Aβ were prepared using an established method,^43 Aβ peptide was resuspended in 0.5 mM NaOH at a concentration of […] and stored at −80° C. For use in cell cultures, the stock solution was incubated at 37° C. for 5-7 days. Before use, the peptide was diluted to 25 μM in DMEM/low glucose media.
Cell Viability Assays. […] Cell viability was measured after 48 hours using commercial MTS assay or lactate dehydrogenase (LDH) cytotoxicity assay. […]

[1] = tested on: 5XFAD primary cortical neurons; experiment: Mitochondrial morphology (TOM20 staining) in 5XFAD primary cortical neurons; assay type: cell-based, mouse; settings: 10 and 50 μM, 48 hours; compared with no treatment control 5XFAD neurons
Method: Immunofluorescent Microscopy and Image Analysis. Isolated primary mouse cortical neurons from the 5XFAD Alzheimer's Disease mouse model were cultured for 10 days and then treated with 14b at 10 or 50 μM for 48 hours. Primary neurons growing on the coverslips were washed three times with PBS and fixed with 4% PFA. After permeabilization with 0.5% Triton™ X-100 for 15 minutes, coverslips were blocked with 10% NGS for 30 min. Coverslips were rinsed with 1% NGS in PBS and incubated with anti-TOM20 antibody at 4° C. overnight. Coverslips were then rinsed with 1% NGS, blocked in 10% NGS for 10 min, and rinsed with 1% NGS. Coverslips were incubated with species-specific AlexaFluor® 488-conjugated Abs diluted in 1% NGS for 2 h at room temperature in the dark. Coverslips were rinsed 3× with PBS. Excess liquid was removed, and slides were coverslipped using Fluoromount-G™ mounting medium. Slides were imaged using a confocal microscope with 63x/1.4NA Oil objective. The acquired images were processed for background subtraction in Zen software. Mitochondrial length was calculated from single plane images. Mitochondrial length was defined as the Feret maximum.
To obtain proof-of-concept protective effect of 14b in an ex vivo mouse model of AD we isolated primary mouse cortical neurons from the 5XFAD Alzheimer's model mouse (FIGS. 6A-6C). […]

[2] = tested on: 5XFAD primary cortical neurons; experiment: Respiration measurements in 5XFAD cortical neurons; assay type: cell-based, mouse; settings: 10 μM and 50 μM, 48 hours
Method: Respiration Measurements (5XFAD cortical neurons). Primary cortical neurons were plated on poly-D-lysine-coated Seahorse XF24 cell culture microplates at a density of 3×10^4 cells/well and cultured for 14 days. At DIV (day in vitro) 12, neurons were treated with indicated compound for 48 hours. On day of the experiment, cells were washed three times and pre-incubated for 1 h in Assay Media with 10 mM Glucose, 1 mM Pyruvate, and 2 mM L-Glutamine. Measurement of intact cellular respiration was performed using an analyzer and a commercial Mito Stress Test Kit. Respiration was measured under basal conditions, and in response to 1.5 μM oligomycin followed by the addition of the […] (FCCP, 1 μM) which induces maximal OCR (Oxygen Consumption Rate). Finally, respiration was stopped by adding the electron transport chain inhibitors rotenone and antimycin A (0.5 μM). Values were normalized to cellular protein levels.
To obtain proof-of-concept protective effect of 14b in an ex vivo mouse model of AD we isolated primary mouse cortical neurons from the 5XFAD Alzheimer's model mouse (FIGS. 6A-6C). 5XFAD neurons were cultured for 10 days and then treated with 14b at 10 or 50 μM for 48 hours and then stained with the mitochondrial outer membrane protein TOM20 to evaluate mitochondrial morphological changes (FIG. 6A). […]

## O=C(C(c1ccccc1)n1cnc2[nH]ncc2c1=S)N1CCC(O)CC1 (stereo not shown) [Compound 14b, 1-(4-hydroxypiperidin-1-yl)-2-phenyl-2-(4-thioxo-1,4-dihydro-5H-pyrazolo[3,4-d]pyrimidin-5-yl)ethan-1-one]
SH-SY5Y cells
  LDH release compared with Aβ treatment alone: significantly reducing LDH release; also recorded: significantly rescued
[1]
  mitochondrial aspect ratio: significantly rescued
  mitochondrial length: significantly rescued
[2]
  mitochondrial respiration (oxygen consumption rate) rescue: trend to rescue
